Each structure is given as a SMILES string.

The values that follow come from patent publication US6906061B2, “Pharmaceutical agent containing Rho kinase inhibitor” (Mitsubishi Pharma Corporation, priority 1996, dated 2005).

This data set has as its system ddY mice. The experiment in a line: Acute toxicity in ddY mice. Type of data set: in vivo. The following applies: intraperitoneal administration at 30 mg/kg, monitored for 5 days. The source says:
The compound 109.2HCl and compound 143.2HCl.H2O were respectively administered intraperitoneally to ddY mice and the mice were monitored for 5 days.

As for `CC(N)[C@H]1CC[C@H](C(=O)Nc2ccnc3[nH]ccc23)CC1` (single isomer, unassigned; (+)) [Compound 109.2HCl, (+)-trans-N-(1H-pyrrolo[2,3-b]pyridin-4-yl)-4-(1-aminoethyl)cyclohexanecarboxamide], the “Acute toxicity (death)” value is listed as “did not cause death”.
